# Measurements from patent US9980943B2, “Methods of treating muscular dystrophy” (BOARD OF REGENTS OF THE NEVADA SYSTEM OF HIGHER EDUCATION, …, priority 2013, dated 2018).
# Columns and labels:
# Format in all cases: cell-based, mouse
# [1] = system: α7 integrin (LacZ reporter in α7βgal+/− myoblasts); assay: Myoblast α7+/LacZ integrin FDG assay (Burkin assay in myoblasts, 96-well); settings: α7+/LacZ myoblasts, 96-well
# [2] = system: β-galactosidase in CMV-LacZ C2C12 myotubes; assay: CMV-LacZ secondary screen in C2C12 myotubes (β-Gal stabilizing assay); settings: C2C12 CMV-LacZ myotubes, fold relative to DMSO
# In short: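 A secondary screen identifies compounds that stabilize β-gal independently of the native promoter, using CMV-LacZ C2C12 cells. Curves span 0.5–40 μM at six levels, in duplicate.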
# [3] = system: β-galactosidase in CMV-LacZ C2C12 myoblasts; assay: CMV-LacZ secondary screen in C2C12 myoblasts (β-Gal stabilizing assay); settings: CMV-LacZ C2C12 myoblasts
# In short: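 CMV-LacZ C2C12 line (clonal, FDG-screened); myoblasts/myotubes dosed 0.5–40 μM (0.5, 1, 5, 10, 20, 40 μM); n=2 per point; β-gal stabilization read-out.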
# [4] = system: α7 integrin (LacZ reporter in α7+/LacZ myotubes); assay: Myotube α7 integrin FDG assay (Burkin assay in myotubes, 96-well); settings: myotubes
Compound,"Burkin Assay in Myoblasts, signal relative to DMSO ([1]; 0.5 uM)","Burkin Assay in Myoblasts, signal relative to DMSO ([1]; 1 uM)","Burkin Assay in Myoblasts, signal relative to DMSO ([1]; 5 uM)","Burkin Assay in Myoblasts, signal relative to DMSO ([1]; 10 uM)","Burkin Assay in Myoblasts, signal relative to DMSO ([1]; 20 uM)","Burkin Assay in Myoblasts, signal relative to DMSO ([1]; 40 uM)","CMV-LACZ in Myotubes, signal relative to DMSO ([2]; 0.5 uM)","CMV-LACZ in Myotubes, signal relative to DMSO ([2]; 1 uM)","CMV-LACZ in Myotubes, signal relative to DMSO ([2]; 5 uM)","CMV-LACZ in Myotubes, signal relative to DMSO ([2]; 10 uM)","CMV-LACZ in Myotubes, signal relative to DMSO ([2]; 20 uM)","CMV-LACZ in Myotubes, signal relative to DMSO ([2]; 40 uM)",CMV-LACZ in Myoblasts (β-galactosidase activity relative to DMSO) ([3]; 0.5 uM),CMV-LACZ in Myoblasts (β-galactosidase activity relative to DMSO) ([3]; 1 uM),CMV-LACZ in Myoblasts (β-galactosidase activity relative to DMSO) ([3]; 5 uM),CMV-LACZ in Myoblasts (β-galactosidase activity relative to DMSO) ([3]; 10 uM),CMV-LACZ in Myoblasts (β-galactosidase activity relative to DMSO) ([3]; 20 uM),CMV-LACZ in Myoblasts (β-galactosidase activity relative to DMSO) ([3]; 40 uM),"Burkin Assay in Myotubes, α7 integrin LacZ reporter signal relative to DMSO ([4]; 0.5 uM)","Burkin Assay in Myotubes, α7 integrin LacZ reporter signal relative to DMSO ([4]; 1 uM)",other results
Cl.O=C1C2CCCN2C(=O)N1CCCN1CCN(c2cccc(Br)c2)CC1 (stereo not drawn) [MLS001180929-01],1.077,1.0555,1.05,1.05,1.102,1.1941,0.8848,0.7876,1.0533,1.0084,1.1347,1.0274,0.8571,0.9288,0.8251,0.8753,0.9811,0.6163,0.899,0.9256,"Burkin Assay in Myotubes, α7 integrin LacZ reporter signal relative to DMSO ([4]; 5 uM): 0.9643; Burkin Assay in Myotubes, α7 integrin LacZ reporter signal relative to DMSO ([4]; 10 uM): 1.03; Burkin Assay in Myotubes, α7 integrin LacZ reporter signal relative to DMSO ([4]; 20 uM): 0.8659; Burkin Assay in Myotubes, α7 integrin LacZ reporter signal relative to DMSO ([4]; 40 uM): 1.135"
COCCSc1ccccc1C(=O)Nc1cc(C)cc(C)c1 [MLS000675441-01],0.9397,0.8764,1.044,1.248,0.9015,0.8996,1.0074,1.1032,1.0460,1.0337,0.9578,0.9822,1.0332,0.9289,0.8800,0.8690,0.8656,0.7437,0.8552,1.071,"Burkin Assay in Myotubes, α7 integrin LacZ reporter signal relative to DMSO ([4]; 5 uM): 0.9591; Burkin Assay in Myotubes, α7 integrin LacZ reporter signal relative to DMSO ([4]; 10 uM): 1.119; Burkin Assay in Myotubes, α7 integrin LacZ reporter signal relative to DMSO ([4]; 20 uM): 0.7476; Burkin Assay in Myotubes, α7 integrin LacZ reporter signal relative to DMSO ([4]; 40 uM): 0.7168"
